Consider 17 compounds from patent US9663526B2, “Aminopyrimidinyl compounds” (Pfizer Inc., priority 2014, dated 2017).

pIC50: −log10 of the molar value. Read-outs that look alike come from different tables or passages of the source.

Holding throughout (type): biochemical
In assay [1] the target is recombinant human kinase domain of JAK2 (Homo sapiens (Human), UniProt O60674). The experiment in a line: JAK Caliper enzyme assay at 1 mM ATP (JAK2).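 Also: microfluidic mobility-shift read-out of fluorescent synthetic peptide phosphorylation, percent product converted from peak heights, room temperature, DMSO-only wells as uninhibited baseline, inhibition curve fit.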
Chain of recombinant human kinase domain of JAK2 (O60674 849-1124): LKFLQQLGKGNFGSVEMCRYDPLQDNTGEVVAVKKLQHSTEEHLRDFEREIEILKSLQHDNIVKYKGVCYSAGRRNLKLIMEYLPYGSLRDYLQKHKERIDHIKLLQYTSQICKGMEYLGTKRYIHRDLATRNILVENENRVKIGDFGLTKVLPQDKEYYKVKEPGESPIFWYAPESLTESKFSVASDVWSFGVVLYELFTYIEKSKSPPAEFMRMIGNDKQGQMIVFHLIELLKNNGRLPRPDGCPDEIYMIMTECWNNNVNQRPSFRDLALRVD
The target of assay [2] is recombinant human kinase domain of TYK2 (Homo sapiens (Human), UniProt P29597). The experiment in a line: JAK Caliper enzyme assay at 1 mM ATP (TYK2).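 Also: microfluidic mobility-shift readout of synthetic peptide phosphorylation by TYK2, tuned to 20–30% conversion at room temperature, reaction stopped with EDTA, DMSO-only wells as uninhibited baseline.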 The settings on record: 1 mM ATP; read-out: IC50 (nM) TYK2.
Chain of recombinant human kinase domain of TYK2 (P29597 897-1176): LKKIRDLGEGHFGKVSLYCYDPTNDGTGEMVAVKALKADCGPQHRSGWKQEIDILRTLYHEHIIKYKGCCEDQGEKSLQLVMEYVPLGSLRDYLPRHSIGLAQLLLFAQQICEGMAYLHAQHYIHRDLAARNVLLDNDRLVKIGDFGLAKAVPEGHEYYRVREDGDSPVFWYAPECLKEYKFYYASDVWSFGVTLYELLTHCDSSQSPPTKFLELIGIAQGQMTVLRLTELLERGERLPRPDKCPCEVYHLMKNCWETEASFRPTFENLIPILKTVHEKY
Assay [3] deals with recombinant human kinase domain of JAK1 (Homo sapiens (Human), UniProt P23458). As to the kind of experiment: JAK Caliper enzyme assay at 1 mM ATP (JAK1).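 As to all read-outs here: microfluidic mobility-shift readout of synthetic fluorescent peptide phosphorylation, percent product converted from peak height, inhibition relative to DMSO-only wells as uninhibited baseline, room temperature incubation.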 The conditions noted are these: for IC50: 1 mM ATP, read-out: IC50 (nM) JAK1.
Chain of recombinant human kinase domain of JAK1 (P23458 875-1153): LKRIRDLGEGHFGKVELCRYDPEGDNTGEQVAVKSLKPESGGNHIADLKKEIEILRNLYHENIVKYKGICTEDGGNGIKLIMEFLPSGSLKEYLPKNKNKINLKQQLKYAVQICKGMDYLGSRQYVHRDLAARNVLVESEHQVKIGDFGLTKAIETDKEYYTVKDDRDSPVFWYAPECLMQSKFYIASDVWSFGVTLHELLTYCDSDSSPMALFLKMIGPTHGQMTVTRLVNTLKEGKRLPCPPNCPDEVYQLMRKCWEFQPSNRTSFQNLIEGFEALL
Assay [4] addresses recombinant human kinase domain of JAK3 (Homo sapiens (Human), UniProt P52333). As to the kind of experiment: JAK Caliper enzyme assay at 1 mM ATP (JAK3).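 Also: microfluidic mobility-shift readout of synthetic peptide phosphorylation, percent product converted from peak heights, normalized to DMSO-only wells as uninhibited baseline, room temperature incubation.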 The settings on record: 1 mM ATP; read-out: IC50 (nM) JAK3.

Chain of recombinant human kinase domain of JAK3 (P52333 822-1111): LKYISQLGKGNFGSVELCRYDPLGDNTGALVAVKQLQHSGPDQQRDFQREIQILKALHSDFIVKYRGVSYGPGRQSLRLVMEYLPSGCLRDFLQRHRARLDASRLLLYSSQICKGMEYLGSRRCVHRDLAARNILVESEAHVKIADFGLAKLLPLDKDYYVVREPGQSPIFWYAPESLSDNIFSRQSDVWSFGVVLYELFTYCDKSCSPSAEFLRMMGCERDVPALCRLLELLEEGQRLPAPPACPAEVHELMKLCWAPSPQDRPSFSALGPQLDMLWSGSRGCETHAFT

As usually defined, the IC50 is the concentration that gives 50% inhibition. For `C[C@@H]1[C@@H]2CN(c3nc(Nc4cnn(C5COC5)c4)ncc3F)C[C@]12NC(=O)[C@@H]1CC1(F)F` [Example 99, (1S)-2,2-difluoro-N-[(1S,5R,6R)-3-(5-fluoro-2-{[1-(oxetan-3-yl)-1H-pyrazol-4-yl]amino}pyrimidin-4-yl)-6-methyl-3-azabicyclo[3.1.0]hex-1-yl]cyclopropanecarboxamide], the half-maximal inhibitory concentration (IC50) in assay [1] was 391 nM; in assay [2], 26 nM; in assay [3] it was 65 nM; in assay [4], 4940 nM.

Consider `Cn1cc(Nc2nccc(N3C[C@H]4CC[C@@H](C3)N4C[C@H]3CC3(F)F)n2)cn1` [Example 63, 4-[(1R,5S)-8-{[(1R)-2,2-difluorocyclopropyl]methyl}-3,8-diazabicyclo[3.2.1]oct-3-yl]-N-(1-methyl-1H-pyrazol-4-yl)pyrimidin-2-amine], for which the IC50 in assay [1] is 856 nM; in assay [2] it was 125 nM; in assay [3] it was 303 nM; in assay [4], more than 10000 nM.

As usually defined, the pIC50 is the IC50 on a negative log10 scale, so that one unit is a factor of ten. In the case of `CNC(=O)c1ncc(Nc2nccc(N3C[C@H]4CC[C@@H](C3)N4C(=O)[C@H]3CC3(F)F)n2)cc1F` [Example 28, 5-({4-[(1R,5S)-8-{[(1R)-2,2-difluorocyclopropyl]carbonyl}-3,8-diazabicyclo[3.2.1]oct-3-yl]pyrimidin-2-yl}amino)-3-fluoro-N-methylpyridine-2-carboxamide], the results for the IC50 in assay [1], in assay [2] and in assay [4] were 8150 nM, 736 nM and more than 10000 nM, respectively. Besides, the negative logarithm of the IC50 (pIC50) in assay [3] is 5.86.

As to `CC(C)NC(=O)N1[C@@H]2CC[C@H]1CN(c1ccnc(Nc3cnn(C)c3)n1)C2` [Example 88, (1R,5S)-3-{2-[(1-methyl-1H-pyrazol-4-yl)amino]pyrimidin-4-yl}-N-(propan-2-yl)-3,8-diazabicyclo[3.2.1]octane-8-carboxamide], the IC50 in assay [1] is 894 nM; in assay [2], 110 nM; in assay [3], 165 nM; in assay [4] it was more than 10000 nM.

For `Cn1cc(Nc2nccc(N3C[C@H]4CC[C@@H](C3)N4c3cc(C#N)ccn3)n2)cn1` [Example 92, 2-[(1R,5S)-3-{2-[(1-methyl-1H-pyrazol-4-yl)amino]pyrimidin-4-yl}-3,8-diazabicyclo[3.2.1]oct-8-yl]pyridine-4-carbonitrile], the IC50 in assay [1] was 264 nM; in assay [2], 62 nM; in assay [3], 52 nM; in assay [4], 6560 nM.

Take `O=C(c1ccno1)N1[C@@H]2CC[C@H]1CN(c1ccnc(Nc3cn[nH]c3)n1)C2` [Example 17, 1,2-oxazol-5-yl{(1R,5S)-3-[2-(1H-pyrazol-4-ylamino)pyrimidin-4-yl]-3,8-diazabicyclo[3.2.1]oct-8-yl}methanone]: the IC50 in assay [1] was 3380 nM; in assay [2] it was 242 nM; in assay [3], 684 nM; in assay [4] it was more than 10000 nM.

As for `NC(=O)c1ncc(Nc2nccc(N3C[C@H]4CC[C@@H](C3)N4C(=O)[C@@H]3CC3(F)F)n2)cc1F` [Example 117, 5-({4-[(1R,5S)-8-{[(1S)-2,2-Difluorocyclopropyl]carbonyl}-3,8-diazabicyclo[33.2.1]oct-3-yl]pyrimidin-2-yl}amino)-3-fluoropyridine-2-carboxamide], the IC50 in assay [1] is 452 nM; in assay [3] it was 114 nM; in assay [4] it was more than 10000 nM.

With `CNC(=O)c1ncc(Nc2nccc(N3C[C@H]4CC[C@@H](C3)N4CC3(C)COC3)n2)cc1C` [Example 54, N,3-dimethyl-5-[(4-{(1R,5S)-8-[(3-methyloxetan-3-yl)methyl]-3,8-diazabicyclo[3.2.1]oct-3-yl}pyrimidin-2-yl)amino]pyridine-2-carboxamide], the IC50 in assay [2] amounted to 8 nM; in assay [3], 19 nM; in assay [4], 4290 nM.

For the compound `CCNC(=O)c1ccc(Nc2ncc(F)c(N3CC4CC(C3)N4C(=O)C(F)(F)F)n2)cc1C` [Example 116, N-ethyl-4-({5-fluoro-4-[6-(trifluoroacetyl)-3,6-diazabicyclo[3.1.1]hept-3-yl]pyrimidin-2-yl}amino)-2-methylbenzamide], the IC50 in assay [2] was 20 nM; in assay [3], 1470 nM; in assay [4], 9820 nM.

Take `Cn1cc(Nc2nccc(N3C[C@H]4CC[C@@H](C3)N4C(=O)NCCC#N)n2)cn1` [Example 47, (1R,5S)—N-(2-cyanoethyl)-3-{2-[(1-methyl-1H-pyrazol-4-yl)amino]pyrimidin-4-yl}-3,8-diazabicyclo[3.2.1]octane-8-carboxamide]: the IC50 is 65 nM in assay [2], 42 nM in assay [3] and more than 10000 nM in assay [4].

As for `Cc1cc(Nc2nccc(N3C[C@H]4CC[C@@H](C3)N4C(=O)C3CC3(F)F)n2)cnc1C(N)=O` (stereo partly drawn) [Example 34, 5-[(4-{(1R,5S)-8-[(2,2-difluorocyclopropyl)carbonyl]-3,8-diazabicyclo[3.2.1]oct-3-yl}pyrimidin-2-yl)amino]-3-methylpyridine-2-carboxamide], the IC50 was 377 nM in assay [1], 152 nM in assay [3] and more than 10000 nM in assay [4].

Take `C[C@@H]1[C@@H]2CN(c3nc(Nc4cnc([C@@H](C)O)c(Cl)c4)ncc3F)C[C@]12NC(=O)C1CC1` [Example 106, N-{(1S,5R,6R)-3-[2-({5-chloro-6-[(1R)-1-hydroxyethyl]pyridin-3-yl}amino)-5-fluoropyrimidin-4-yl]-6-methyl-3-azabicyclo[3.1.0]hex-1-yl}cyclopropanecarboxamide]: the half-inhibitory concentration (IC50) in assay [1] was 9410 nM; in assay [4] it was more than 10000 nM.

On to `N#CC1(CN2[C@@H]3CC[C@H]2CN(c2ccnc(Nc4cn[nH]c4)n2)C3)CC1` [Example 71, 1-({(1R,5S)-3-[2-(1H-pyrazol-4-ylamino)pyrimidin-4-yl]-3,8-diazabicyclo[3.2.1]oct-8-yl}methyl)cyclopropanecarbonitrile], for which the IC50 in assay [2] was 152 nM; in assay [3], 153 nM; in assay [4], more than 10000 nM.

Turning to `O=C([C@H]1CC1(F)F)N1[C@@H]2CC[C@H]1CN(c1ccnc(Nc3cn[nH]c3)n1)C2` [Example 50, ((1R,5S)-3-(2-((1H-Pyrazol-4-yl)amino)pyrimidin-4-yl)-3,8-diazabicyclo[3.2.1]octan-8-yl)((R)-2,2-difluorocyclopropyl)methanone], the IC50 in assay [1] was 3420 nM; in assay [3] it was 478 nM; in assay [4], more than 10000 nM.

In the case of `CCNC(=O)c1ccc(Nc2nccc(N3C[C@H]4CC[C@@H](C3)N4C(=O)CC#N)n2)cc1` [Example 13, 4-({4-[(1R,5S)-8-(cyanoacetyl)-3,8-diazabicyclo[3.2.1]oct-3-yl]pyrimidin-2-yl}amino)-N-ethylbenzamide], the IC50 in assay [1] is 199 nM; in assay [3], 41 nM; in assay [4], more than 10000 nM.

As for `CCNC(=O)c1ccc(Nc2ncc(F)c(N3C[C@H]4CC[C@@H](C3)N4C(=O)C(F)(F)F)n2)cc1C` [Example 72, N-ethyl-4-({5-fluoro-4-[8-(trifluoroacetyl)-3,8-diazabicyclo[3.2.1]oct-3-yl]pyrimidin-2-yl}amino)-2-methylbenzamide], the IC50 in assay [1] came to 151 nM; in assay [3] it was 81 nM; in assay [4], 411 nM.

As to `NS(=O)(=O)c1ccc(Nc2ncc(F)c(N3C[C@H]4CC[C@@H](C3)N4C(=O)C3CC3)n2)cn1` [Example 4, 5-({4-[(1R,5S)-8-(cyclopropylcarbonyl)-3,8-diazabicyclo[3.2.1]oct-3-yl]-5-fluoropyrimidin-2-yl}amino)pyridine-2-sulfonamide], the IC50 in assay [2] is 176 nM; in assay [3], 659 nM; in assay [4] it was more than 10000 nM.
